Test results reported in patent US20100260673A1, “PHAGE DISPLAY PEPTIDE PROBES FOR IMAGING EARLY RESPONSES TO ANTIANGIOGENIC TREATMENT” (priority 2009, published 2010).
Like-named read-outs stand apart in the source and are kept apart here. Where a SMILES comes first, the peptide text is derived from it. Where no end group is shown, it is not given here. The star is where a group is joined. Propanoyl(2-F) = CC(F)C(=O)*

What was measured:
LS174T tumor [1] = conditions: mouse, in vivo
Procedure: The 4T1 cells were harvested from the tumor and suspended in sterile PBS at a concentration of 2×10^7 viable cells/mL.
Tumor Growth Study: When palpable tumors (150-200 mm^3) were present in all animals, mice were randomly divided into two groups (n=10/group). Cancer therapy response was evaluated in LS174T human colorectal cancer, 4T1 murine breast cancer and 22B human head-neck cancer models. […] The mouse body weight and tumor volume were measured every 3 days for up to 20 days before euthanasia.
Small Animal PET Imaging: A detailed procedure for positron emission tomography (PET) imaging has been reported earlier (Li et al., (2008) J. Nucl. Med. 49: 453-461). Briefly, PET scans were performed using a microPET R4 rodent model scanner (Siemens Medical Solutions). […] The images were reconstructed by a two-dimensional ordered subsets expectation maximum (OSEM) algorithm with no attenuation or scatter correction. For each microPET scan, regions of interest (ROIs) were drawn over the tumor by using vendor software ASI Pro 5.2.4.0 on decay corrected whole-body coronal images. Assuming a tissue density of 1 g/ml, the ROIs were converted to MBq/g/min using a conversion factor, and then divided by the administered activity to obtain an imaging ROI-derived percent injected dose per gram (% ID/g).

[2] = for metabolic stability in vivo: urine after 1 hr
Procedure: Metabolic Stability of AVP Peptide: Nude mice bearing LS174T tumor xenografts were intravenously injected with 3.7 MBq of ^18F-FP-AVP. Urine samples were collected 1 h after tracer injection and analyzed by HPLC.
Radiochemistry: Semi-preparative reversed-phase high performance liquid chromatography (RPHPLC) using a Vydac protein and peptide column (218TP510; 5 μm, 250×10 mm) was performed on a Dionex 680 chromatography system with a UVD 170U absorbance detector and model 105S single-channel radiation detector (Carroll & Ramsey Associates). The recorded data were processed using Chromeleon version 6.50 software. With a flow rate of 5 ml/min, the mobile phase was changed from 95% solvent A [0.1% trifluoroacetic acid (TFA) in water] and 5% B [0.1% TFA in acetonitrile] (0-2 min) to 35% solvent A and 65% solvent B at 32 min. […] C18 Sep-Pak cartridges (Waters) were pretreated with ethanol and water before use.

[3] = test system: LS174T human colorectal cancer; assay: Tumor growth study; format: in vivo, mice
Procedure: Animal Models: Female athymic nude mice (nu/nu) were obtained from Harlan (Indianapolis, Ind.) at 6-8 weeks of age and were kept under sterile conditions. The LS174T or 22B cells were harvested and suspended in sterile PBS at a concentration of 5×10^7 viable cells/ml. Viable tumor cells (5×10^6) in sterile PBS (100 μL) were injected subcutaneously into the right shoulder. […] Tumor growth was followed by caliper measurements of perpendicular measures of the tumor. The tumor volume was estimated by the formula: tumor volume=a×(b2)/2, where a and b were the tumor length and width respectively in mm.

LS174T tumor [4] = conditions: Bevacizumab-treated mice
[5] = test system: tumor that responds to the anti-angiogenic drug ZD4190 therapy; conditions: ZD4190-treated
Description: Two-dimensional NIR fluorescence images were acquired at various time points after injection using a Maestro in vivo imaging system (CRI, Woburn, Mass.; IRdye800 excitation=735 nm, emission=780 nm long pass).

[6] = test system: 4T1 murine breast cancer cells; conditions: 4T1, 48 h incubation, various concentrations
Procedure: (§1) Toxicity of AVP on Cell Viability by MTT Assay: MTT (3-(4,5-dimethylthiazolyl-2)-2,5-diphenyltetrazolium bromide; ATCC) assays were used to measure cell viability. Three thousand tumor cells or HUVECs were seeded per well in a 96-well plate and allowed to incubate for 24 h. After incubation with various concentrations of peptide AVP for 48 h, 10 μl of MTT reagent was added to each well. Four hours later, when the purple precipitate became visible, the supernatant was discarded, and 100 μl of DMSO was added to each well and the plate was shaken in the dark for 10 min at room temperature. The absorbance at 570 nm was then measured using a microplate reader (Tecan).

[7] = test system: human umbilical vein endothelial cells (HUVEC); conditions: 48 h incubation, various concentrations
Procedure: as §1

[8] = test system: LS174T human colorectal cancer cells; conditions: 48 h incubation, various concentrations
Procedure: as §1

22B tumor = conditions: Bevacizumab-treated mice, 4T1 and 22B in the same animal
4T1 tumor = conditions: Bevacizumab-treated mice

## CC(C)C[C@H](NC(=O)C(C)F)C(=O)N[C@@H](CC(C)C)C(=O)N[C@@H](C)C(=O)N[C@@H](CC(=O)O)C(=O)N[C@H](C(=O)N[C@H](C(=O)N[C@@H](Cc1c[nH]cn1)C(=O)N[C@@H](Cc1c[nH]cn1)C(=O)N[C@@H](CCCNC(=N)N)C(=O)N1CCC[C@H]1C(=O)N[C@@H](Cc1c[nH]c2ccccc12)C(=O)N[C@H](C(=O)O)[C@@H](C)O)[C@@H](C)O)[C@@H](C)O (some centres unmarked) [18F-FP-AVP] ({Propanoyl(2-F)}-LLADTTHHRPWT-OH)
LS174T tumor [1]
  microPET tumor uptake, Avastin treated versus control PBS treated tumors: significantly higher uptake
[2]
  metabolic stability in vivo: good metabolic stability
[2]; listed as 18F-labeled Bevacizumab (AVASTIN™)-responsive peptide
  metabolic stability in vivo: minimal degradation or metabolism
[2]; urine sample 1 h after i.v. injection, HPLC
  intact tracer in urine: about 90%

## Bevacizumab (AVASTIN™): recombinant humanized monoclonal IgG1 antibody that binds human VEGF
[3]; LS174T and 22B tumor models, imaging on fifth day of treatment
  additional time after imaging until statistically significant change in tumor volume versus saline control: 5 to 6 days
[3]; fifth day following the start of treatment, 1 day after three doses
  difference in tumor volume between treatment and control groups: no difference

## LLADTTHHRPWT [AVP]
LS174T tumor [4]
  concentration in LS174T tumor: is concentrated
[5]
  concentration in tumor responding to ZD4190 therapy: concentrated
[6]
  effect on cells (MTT): little effect
[7]
  effect on cells (MTT): little effect
[8]
  effect on cells (MTT): little effect
22B tumor
  concentration in 22B tumor: is concentrated
4T1 tumor; listed as AVP peptide
  concentration in / binding to 4T1 tumor: no binding
4T1 tumor; listed as Bevacizumab (AVASTIN™)-responsive peptide
  concentration in / binding to 4T1 tumor: not concentrated
